The structures appear in SMILES notation. Calls of active or inactive are those of the source. No cut-off for these calls is given here.

Assay [1] can be described thus: Antiplatelet activity against human platelet assessed as inhibition of collagen-induced platelet aggregation. Type of assay: functional, cell-based.
The test system of a further assay is Aorta. Kind of assay: Vasorelaxant activity against noradrenaline-induced contraction in intact rat aortic rings. In kind it is functional, tissue-based.
For the next assay, the system named is Platelet. The assay is described as follows: Antiplatelet activity against human platelet assessed as inhibition of thrombin-induced platelet aggregation at <100 uM. In kind it is functional, cell-based.
For assay [2], the target named is Prostaglandin G/H synthase 1 (Homo sapiens) (UniProt P23219). Kind of assay: Inhibition of COX1.
Prostaglandin G/H synthase 1 (Homo sapiens), sequence (P23219 whole entry): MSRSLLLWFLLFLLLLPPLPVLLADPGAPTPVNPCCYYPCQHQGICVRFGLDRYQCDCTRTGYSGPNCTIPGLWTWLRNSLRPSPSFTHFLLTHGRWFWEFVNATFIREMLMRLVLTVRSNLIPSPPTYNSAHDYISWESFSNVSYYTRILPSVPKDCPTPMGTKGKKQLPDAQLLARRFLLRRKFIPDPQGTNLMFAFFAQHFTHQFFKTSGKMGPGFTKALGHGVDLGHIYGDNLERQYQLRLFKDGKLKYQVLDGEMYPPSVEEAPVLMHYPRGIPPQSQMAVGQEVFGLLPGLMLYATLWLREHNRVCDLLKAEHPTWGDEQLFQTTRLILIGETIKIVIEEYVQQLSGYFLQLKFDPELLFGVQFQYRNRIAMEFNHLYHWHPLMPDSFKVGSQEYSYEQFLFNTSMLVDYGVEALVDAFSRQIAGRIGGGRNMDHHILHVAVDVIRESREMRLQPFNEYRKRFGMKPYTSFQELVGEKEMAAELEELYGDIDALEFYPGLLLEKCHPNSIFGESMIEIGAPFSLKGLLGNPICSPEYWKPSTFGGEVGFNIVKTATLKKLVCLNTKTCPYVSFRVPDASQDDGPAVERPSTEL

With `Cn1nc(CCCOCc2ccccc2)ccc1=O`, the figures for the IC50 (in assay [1]; in the assay with Aorta) were 50.7 µM and 76.4 µM, respectively. The outcome in the assay with Platelet was Active.

Turning to `O=c1ccc(CO)nn1Cc1ccccc1`, the IC50 (in assay [1]; with Aorta) was over 100 µM throughout. Also, the result with Platelet was Active.

`O=c1ccc(CCO)nn1Cc1ccccc1`: the 50% inhibitory concentration (IC50) (in assay [1]; in the assay on Aorta) was over 100 µM throughout. Besides, the result in the assay with Platelet was Active.

With `Cn1nc(CO[Si](c2ccccc2)(c2ccccc2)C(C)(C)C)ccc1=O`, the IC50 in assay [1] turned out to be 4.55 µM; in the assay on Aorta, 58.4 µM. The outcome in the assay with Platelet was Active.

As for `O=c1ccc(CCCO)nn1Cc1ccccc1`, the IC50 in assay [1] was 4.7 µM; in the assay on Aorta, over 100 µM. Moreover, in the assay with Platelet, the outcome was Active.

With `CC(C)(C)[Si](OCCCc1ccc(=O)n(Cc2ccccc2)n1)(c1ccccc1)c1ccccc1`, the concentration for half-maximal inhibition (IC50) in assay [1] came out at 3.9 µM; in the assay with Aorta, 39.9 µM. In addition, in the assay on Platelet, the outcome was Active.

With `Cc1[nH]c(=O)c(C#N)cc1-c1ccncc1` [MILRINONE], the IC50 was 38.5 µM in assay [1] and 0.122 µM with Aorta.

On to `O=c1ccc(CCCO)n[nH]1`, for which the IC50 (in assay [1]; in the assay on Aorta) was over 100 µM throughout. Besides, the result in the assay on Platelet was Active.

In the case of `Cn1nc(CCO)ccc1=O`, the IC50 is 60.4 µM in assay [1] and over 100 µM with Aorta. Also, in the assay on Platelet, the result was Active.

Regarding `O=c1ccc(COCc2ccccc2)nn1Cc1ccccc1`, the IC50 worked out at 8 µM in assay [1] and 35.3 µM in the assay on Aorta. Besides, the result in the assay on Platelet was Active.

`CC(C)(C)[Si](OCCc1ccc(=O)n(Cc2ccccc2)n1)(c1ccccc1)c1ccccc1`: the IC50 in assay [1] is 4.8 µM; in the assay on Aorta, over 100 µM. In addition, the result with Platelet was Active.

In the case of `O=c1ccc(CO)n[nH]1`, the IC50 (in assay [1]; in the assay on Aorta) was over 100 µM in each case. Further, the outcome with Platelet was Active.

As to `Cn1nc(CCCO)ccc1=O`, the IC50 (in assay [1]; with Aorta) was over 100 µM in each case. For the same compound, the outcome in the assay with Platelet was Active.

Regarding `CC(C)(C)[Si](OCCCc1ccc(=O)[nH]n1)(c1ccccc1)c1ccccc1`, the results for the IC50 (in assay [1]; in the assay with Aorta) were 2.13 µM and 78.2 µM, respectively. In the assay with Platelet, the result was Active.

In the case of `Cn1nc(CCOCc2ccccc2)ccc1=O`, the IC50 (in assay [1]; with Aorta) was over 100 µM throughout. Also, in the assay with Platelet, the outcome was Active.

As for `O=c1ccc(CCO)n[nH]1`, the results for the IC50 (in assay [1]; in the assay with Aorta) were 64.3 µM and over 100 µM, respectively. In addition, the result with Platelet was Active.

As for `Cn1nc(CCO[Si](c2ccccc2)(c2ccccc2)C(C)(C)C)ccc1=O`, the IC50 in assay [1] was determined as 3.17 µM; in the assay with Aorta, 47 µM. For the same compound, the result in the assay on Platelet was Active. Further, in assay [2], the inhibition result is “Active”.

On to `Cn1nc(CO)ccc1=O`, for which the IC50 in assay [1] was 69.6 µM; in the assay on Aorta, over 100 µM. Further, in the assay on Platelet, the outcome was Active.

Take `CC(C)(C)[Si](OCc1ccc(=O)n(Cc2ccccc2)n1)(c1ccccc1)c1ccccc1`: the results for the IC50 (in assay [1]; with Aorta) were 4.6 µM and over 100 µM, respectively. Moreover, in the assay with Platelet, the result was Active.

For `CC(C)(C)[Si](OCCc1ccc(=O)[nH]n1)(c1ccccc1)c1ccccc1`, the half-maximal inhibitory concentration (IC50) in assay [1] was determined as 3.87 µM; in the assay with Aorta it was 56.2 µM. In the assay on Platelet, the outcome was Active.

As for `Cn1nc(COCc2ccccc2)ccc1=O`, the IC50 (in assay [1]; in the assay with Aorta) was over 100 µM throughout. Also, in the assay with Platelet, the result was Active.

Consider `O=c1ccc(CCCOCc2ccccc2)nn1Cc1ccccc1`, for which the IC50 stood at 5.9 µM in assay [1] and 32.5 µM with Aorta. Besides, the outcome in the assay with Platelet was Active.

On to `CC(C)(C)[Si](OCc1ccc(=O)[nH]n1)(c1ccccc1)c1ccccc1`, for which the IC50 in assay [1] was determined as 1.8 µM; with Aorta, 62.6 µM. Further, the result in the assay on Platelet was Active.

Take `O=c1ccc(CCOCc2ccccc2)nn1Cc1ccccc1`: the IC50 was determined as 4.11 µM in assay [1] and 32.3 µM with Aorta. Further, the result in the assay on Platelet was Active.

With `Cn1nc(CCCO[Si](c2ccccc2)(c2ccccc2)C(C)(C)C)ccc1=O`, the IC50 in assay [1] was 2.34 µM; with Aorta it was over 100 µM. The result in the assay with Platelet was Active.

One may read the IC50 as the concentration that inhibits the measured activity by half.

The values above are taken from ChEMBL document CHEMBL1268921, “New pyridazinone derivatives with vasorelaxant and platelet antiaggregatory activities” (Bioorg Med Chem Lett, 2010).
